# Values joined by “and” are separate entries in the source; they are usually repeats but may differ in a detail not shown here. Identical values can stand only once. Like-named read-outs stand apart in the source and are kept apart here.
# Tests used:
# [1] = tested on: M. gastrocnemius contractions; format: in vivo, guinea pig; settings: for 1× ED90 dose: rocuronium i.v. bolus, established in each animal
# Protocol: Male healthy mature guinea pigs were anesthetised with 30 mg·kg^−1 pentobarbitone and 900 mg·kg^−1 urethane i.p. The guinea pigs were artificially ventilated with room air (4.5-5.5 ml; 50-60 strokes/min). Catheters were placed in both jugular veins and a third catheter was placed in the carotid artery for continuous monitoring of arterial blood pressure and the taking of blood samples for blood gas analysis.
# Heart rate was derived from the blood pressure signal.
# Body temperature was maintained at 37-38° C. using an electrical heating pad.
# The gastrocnemius muscle was dissected free from surrounding muscles and set up for recording twitch tension using a force transducer. A resting tension of 250-300 mN was applied to the muscle. A stimulation electrode was placed around the sciatic nerve, which was crushed centrally to the electrode to prevent reflex responses. The gastrocnemius muscle was stimulated indirectly via the sciatic nerve with rectangular pulses of 0.5 ms duration at 10 s (0.1 Hz) intervals at a supra maximal voltage using a Grass S88 Stimulator.
# Animals were allowed to stabilise for […] before the start of the experiment. Firstly, the 1×ED90 blocking dose of rocuronium was established in each animal followed by complete spontaneous recovery of muscle contractions. After at least 30 minutes, all animals received a 10×ED90 blocking dose of rocuronium by intravenous bolus injection. One minute after bolus injection of rocuronium, the animals received either 2300 nmol·kg^−1 Org 25969 in saline or an equivalent volume of saline. Time to 25%, 50%, 75% and 90% recovery of twitch height was measured from the moment of injection of Org 25969 or saline, respectively.
# Rocuronium bromide was dissolved in a pH 4.0 citric acid/phosphate/mannitol buffer. Org 25969 was dissolved in saline.
# [2] = tested on: M. adductor pollicis contractions; experiment: Rocuronium-induced block of M. adductor pollicis contractions (TOF stimulation) and effect of Org 25969 in anaesthetised Rhesus monkeys; format: in vivo, Rhesus monkey
# Protocol: (§1) • T1: first twitch: amplitude of the first response to TOF stimulation, expressed as percentage of control T1 (%). • T4/T1 ratio: the ratio of T4 over T1 (within one TOF stimulus) expressed as decimals.
# Female Rhesus monkeys were starved overnight and sedated with 10 mg·kg^−1 ketamine i.m., followed by i.v. injection of 25 mg·kg^−1 pentobarbitone sodium and subsequent infusion of 5-10 mg·kg^−1hr^−1. The animals were intubated and ventilated with a mixture of oxygen and nitrous oxide (2:3), using a ventilator. The expired CO2 level was measured using a capnograph. The tidal volume was adjusted to obtain a CO2 level of approximately 4.5%. Oxygen saturation was measured via a probe on the earlobe using a pulse oxymeter. Blood pressure was measured non-invasively with a cuff placed on the tail. The ECG was recorded and heart rate was measured. Rectal temperature was measured and body temperature was kept at 37-38° C. using a heating blanket. The right hand and right arm of the animal were fixed to a frame using surgical tape. The thumb was connected to a force transducer. A pre-load of 200-500 mN was applied. Two needle electrode were placed near the N. ulnaris and the nerve was stimulated with train-of-four pulses (pulse duration: 2 ms, train-frequency: 0.07 Hz). At the end of the experiment, the animals were allowed to recover from anesthesia. Appropriate recovery care was given to all animals. Two groups of monkeys were used to assess the reversal effects of Org 25969 against the neuromuscular blocking agents rocuronium (Esmeron®/Zemuron®) and vecuronium (Norcuron®). In the first group, animals initially received an intravenous bolus injection of a 1×ED90 dose of rocuronium bromide to induce neuromuscular block, followed by spontaneous recovery of the twitches. After complete recovery of the twitches, each group received a second and larger 5×ED90 dose of rocuronium followed by spontaneous recovery in one subgroup, whereas the other subgroup received an intravenous bolus dose of 1150 nmol·kg^−1 Org 25969 as soon as all twitches had disappeared. In the vecuronium groups of animals, the same protocol was used, but rocuronium was replaced by vecuronium. Rocuronium bromide and vecuronium bromide were dissolved in a citric acid/phosphate/mannitol buffer (pH 4.0). Org 25969 was dissolved in saline.
# [3] = tested on: deep block induced by rocuronium; format: in vivo, human
# Excerpt: A simple method of monitoring neuromuscular function is the train-of-four (TOF) technique using an acceleromyograph (TOF Watch®). Four electrical stimuli each 0.5 seconds apart (and for instance applied at 12-15 seconds intervals) are applied along the course of the ulnar nerve in the arm. Stimulation of the ulnar nerve causes contraction of the adductor pollicis muscle and movement of the thumb. Response can be noted visually or, more accurately, by placing a finger lightly on the surface of the hand over the muscle to feel the contraction. A baseline response check is done to ensure that there are four muscle twitches in response to the four stimuli. Normal baseline and full recovery is indicated by four twitches of equal strenght. As the number of acetylcholine receptors occupied by NMBAs increases, the number of twitches decreases, no twitches indicating total paralysis.
# as §1
# 10 Volunteers, which were enrolled in a phase 1 trial with the objective to investigate the safety, pharmacokinetics and efficacy of Org 25969, received general anesthesia using i.v. administration of remifentanil followed by propofol (Target controlled Infusion—Diprifusor®) for induction and maintenance. After induction of anesthesia and set-up of the TOF-Watch®SX subjects received a i.v. bolus dose of 0.6 mg·kg^−1 rocuronium bromide (Esmeron®) given by hand over 5 seconds. Between the administration of rocuronium and the administration of Org 25969, a laryngeal mask was applied or tracheal intubation was performed to ventilate the subjects. At 3 minutes after rocuronium bromide administration (i.e. deep block) either placebo (commercially physiological salt solution, 0.9% sodium chloride) or Org 25969 (25 mg/ml) were given as a bolus dose into a fast running infusion in the forearm. Six dose levels of Org 25969 were given to these 10 volunteers. Neuromuscular block was measured using the TOF-Watch-SX® acceleromyograph for at least 90 minutes after administration of Org 25969 or placebo.
# [4] = 10× ED90 rocuronium, 2300 nmol · kg^−1 Org 25969 i.v. one minute later (group 2), time from injection of Org 25969
# [5] = 5× ED90 rocuronium + 1150 nmol · kg^−1 Org 25969 i.v.
# [6] = 5× ED90 rocuronium in the subgroup given 1150 nmol · kg^−1 Org 25969 once all twitches had disappeared
# [7] = 1× ED90 rocuronium i.v., spontaneous recovery, group 1
# [8] = 1× ED90 rocuronium i.v., spontaneous recovery, group 2
# [9] = 10× ED90 rocuronium i.v. bolus, group 1
# [10] = 10× ED90 rocuronium i.v. bolus, group 2
# [11] = 10× ED90 rocuronium, saline one minute later (group 1), time from injection of saline
# [12] = 1× ED90 rocuronium, spontaneous recovery
# [13] = 5× ED90 rocuronium, spontaneous recovery
# [14] = 5× ED90 rocuronium, spontaneous recovery subgroup
smiles,measurement,setting,value
"O=C(O)CCSC[C@H]1O[C@@H]2O[C@H]3[C@H](O)[C@@H](O)[C@@H](O[C@H]4[C@H](O)[C@@H](O)[C@@H](O[C@H]5[C@H](O)[C@@H](O)[C@@H](O[C@H]6[C@H](O)[C@@H](O)[C@@H](O[C@H]7[C@H](O)[C@@H](O)[C@@H](O[C@H]8[C@H](O)[C@@H](O)[C@@H](O[C@H]9[C@H](O)[C@@H](O)[C@@H](O[C@H]1[C@H](O)[C@H]2O)O[C@@H]9CSCCC(=O)O)O[C@@H]8CSCCC(=O)O)O[C@@H]7CSCCC(=O)O)O[C@@H]6CSCCC(=O)O)O[C@@H]5CSCCC(=O)O)O[C@@H]4CSCCC(=O)O)O[C@@H]3CSCCC(=O)O [Org 25969, 6-per-deoxy-6-per-(2-carboxyethyl)thio-γ-cyclodextrin]",25-75% recovery index,"[1]; 10× ED90 rocuronium, 2300 nmol · kg^−1 Org 25969 i.v. one minute later (group 2)",1.3 min and 1.3 ± 0.4 min
same,time to 25% recovery,[1]; [4],3.7 ± 0.4 min
same,time to 90% recovery,[1]; [4],8.5 min and 8.5 ± 2.2 min
same,effectiveness against rocuronium compared with vecuronium (in words),"[2]; 1150 nmol·kg^−1 Org 25969, 5×ED90 of either blocker",more effective against a 5×ED90 dose of rocuronium
same,reversal of rocuronium-induced neuromuscular block (in words),[2]; 1150 nmol·kg^−1 Org 25969 i.v. after 5×ED90 rocuronium,rapid reversal
same,0.50-0.90 TOF ratio interval,[2]; [5],4.0 ± 0.9 min
same,25-75% recovery index,[2]; [5],3.1 ± 0.8 min
same,time to 25% recovery of T1,[2]; [5],3.8 ± 0.7 min
same,time to 90% recovery of T1,[2]; [5],9.5 ± 1.9 min
same,time to TOF ratio 0.90,[2]; [5],7.9 ± 1.8 min
same,block,[2]; [6],100.0 ± 0.0%
same,onset time,[2]; [6],0.5 ± 0.1 min
same,Time to TOF ratio 0.9,"[3]; Org 25969 0.1 mg · kg^−1 i.v. bolus 3 minutes after 0.6 mg·kg^−1 rocuronium bromide, individual volunteer",43 min
same,Time to TOF ratio 0.9,"[3]; Org 25969 0.5 mg · kg^−1 i.v. bolus 3 minutes after 0.6 mg·kg^−1 rocuronium bromide, individual volunteer",71 min
same,Time to TOF ratio 0.9,"[3]; Org 25969 1.0 mg · kg^−1 i.v. bolus 3 minutes after 0.6 mg·kg^−1 rocuronium bromide, individual volunteers",23 min and 31 min
same,Time to TOF ratio 0.9,"[3]; Org 25969 2.0 mg · kg^−1 i.v. bolus 3 minutes after 0.6 mg·kg^−1 rocuronium bromide, individual volunteers",13 min and 17 min
same,Time to TOF ratio 0.9,"[3]; Org 25969 4.0 mg · kg^−1 i.v. bolus 3 minutes after 0.6 mg·kg^−1 rocuronium bromide, individual volunteers",2.5 min and 3.2 min
same,Time to TOF ratio 0.9,"[3]; Org 25969 8.0 mg · kg^−1 i.v. bolus 3 minutes after 0.6 mg·kg^−1 rocuronium bromide, individual volunteers",≤ 2 min and 1.0 min and 1.2 min
same,re-curarisation,"[3]; human, in vivo",no signs of re-curarisation
"C=CC[N+]1([C@H]2C[C@H]3[C@@H]4CC[C@H]5C[C@H](O)[C@@H](N6CCOCC6)C[C@]5(C)[C@H]4CC[C@]3(C)[C@H]2OC(C)=O)CCCC1 [rocuronium, rocuronium bromide]",25-75% recovery index,[1]; [7],3.5 ± 0.4 min
same,max recovery,[1]; [7],101.1 ± 1.3%
same,max recovery after (time),[1]; [7],15.1 ± 2.1 min
same,time to 25% recovery,[1]; [7],5.1 ± 0.7 min
same,time to 90% recovery,[1]; [7],10.7 ± 1.5 min
same,25-75% recovery index,[1]; [8],2.3 ± .5 min
same,max recovery,[1]; [8],101.4 ± 2.8%
same,max recovery after (time),[1]; [8],12.5 ± 1.7 min
same,time to 25% recovery,[1]; [8],3.8 ± 0.5 min
same,time to 90% recovery,[1]; [8],8.7 ± 1.4 min
same,onset time,"[1]; 1× ED90 rocuronium i.v., group 1",2.6 ± 0.3 min
same,max block,"[1]; 1× ED90 rocuronium i.v., group 1, Mean ± SEM, n = 6",89.7 ± 2.4%
same,onset time,"[1]; 1× ED90 rocuronium i.v., group 2",2.1 ± 0.3 min
same,max block,"[1]; 1× ED90 rocuronium i.v., group 2, Mean ± SEM, n = 6",91.0 ± 2.5%
same,max block,[1]; [9],100.0 ± 0.0%
same,onset time,[1]; [9],2.0 ± 0.8 min
same,max block,[1]; [10],100.0 ± 0.0%
same,onset time,[1]; [10],1.7 ± 0.5 min
same,25-75% recovery index,"[1]; 10× ED90 rocuronium, saline one minute later (group 1)",15.9 min and 15.9 ± 4.0 min
same,time to 25% recovery,[1]; [11],47.5 ± 7.0 min
same,time to 90% recovery,[1]; [11],78.3 min and 78.3 ± 15.2 min
same,1× ED90 dose,"[1]; group 1, Mean ± SEM, n = 6",178 ± 22 nmol/kg
same,1× ED90 dose,"[1]; group 2, Mean ± SEM, n = 6",169 ± 15 nmol/kg
same,onset time,[2]; 1× ED90 rocuronium,1.2 ± 0.0 min
same,0.50-0.90 TOF ratio interval,[2]; [12],2.6 ± 0.2 min
same,25-75% recovery index,[2]; [12],3.3 ± 0.4 min
same,time to 25% recovery of T1,[2]; [12],4.5 ± 0.6 min
same,time to 90% recovery of T1,[2]; [12],9.6 ± 0.9 min
same,time to TOF ratio 0.90,[2]; [12],8.4 ± 0.9 min
same,block,"[2]; 1× ED90 rocuronium, Mean ± SEM, n = 4",93.3 ± 1.9%
same,0.50-0.90 TOF ratio interval,[2]; [13],6.9 ± 0.8 min
same,25-75% recovery index,[2]; [13],6.0 ± 0.6 min
same,time to 25% recovery of T1,[2]; [13],18.5 ± 2.1 min
same,time to 90% recovery of T1,[2]; [13],27.7 ± 3.2 min
same,time to TOF ratio 0.90,[2]; [13],28.2 ± 3.4 min
same,block,[2]; [14],100.0 ± 0.0%
same,onset time,[2]; [14],0.7 ± 0.2 min
same,Time to TOF ratio 0.9,"[3]; 0.6 mg·kg^−1 rocuronium bromide i.v., placebo at 3 minutes, time from placebo, n = 10",35 to 69 min

# From patent publication US20050153932A1, “Controlled muscle relaxation” (priority 2003, published 2005)
